From ChEMBL document CHEMBL5465560, “Selectivity Literature for EUbOPEN Chemogenomic Library” (2024) come the findings set out here.

SMILES strings stand for the structures.

In assay [1] the target is T1, Casein kinase I isoform alpha-like (Homo sapiens) (UniProt Q8N752).
T1 sequence (whole entry): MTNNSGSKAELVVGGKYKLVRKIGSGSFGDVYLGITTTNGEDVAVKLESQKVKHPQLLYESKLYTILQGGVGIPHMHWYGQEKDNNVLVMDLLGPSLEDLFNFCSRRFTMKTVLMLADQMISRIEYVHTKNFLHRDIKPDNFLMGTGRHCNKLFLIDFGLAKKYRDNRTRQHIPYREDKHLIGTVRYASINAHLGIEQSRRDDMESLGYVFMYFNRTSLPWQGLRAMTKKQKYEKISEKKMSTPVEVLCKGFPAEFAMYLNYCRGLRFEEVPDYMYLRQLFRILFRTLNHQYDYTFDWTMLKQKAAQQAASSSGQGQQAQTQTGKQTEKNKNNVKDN
The assay can be described thus: Selectivity interaction (Kinase panel (Z-LYTE Assay)) EUB0001632a CSNK1A1L. The conditions noted are these: at 10 µM.

Assay [2] addresses Activated CDC42 kinase 1 (Homo sapiens, UniProt Q07912). The assay can be described thus: Selectivity interaction (LanthaScreen Eu Kinase Binding Assay) EUB0001632a TNK2. As to conditions: at 10 µM. For orientation: TR-FRET usually uses a lanthanide donor and a delayed reading to cut background.
Assay [3] deals with Phosphatidylinositol 4,5-bisphosphate 3-kinase catalytic subunit alpha isoform (Homo sapiens), P42336 [I800L]. The conditions noted are these: at 10 µM.
Assay [4] deals with T2, Serine/threonine-protein kinase NLK (Homo sapiens) (UniProt Q9UBE8).
T2 sequence (whole entry): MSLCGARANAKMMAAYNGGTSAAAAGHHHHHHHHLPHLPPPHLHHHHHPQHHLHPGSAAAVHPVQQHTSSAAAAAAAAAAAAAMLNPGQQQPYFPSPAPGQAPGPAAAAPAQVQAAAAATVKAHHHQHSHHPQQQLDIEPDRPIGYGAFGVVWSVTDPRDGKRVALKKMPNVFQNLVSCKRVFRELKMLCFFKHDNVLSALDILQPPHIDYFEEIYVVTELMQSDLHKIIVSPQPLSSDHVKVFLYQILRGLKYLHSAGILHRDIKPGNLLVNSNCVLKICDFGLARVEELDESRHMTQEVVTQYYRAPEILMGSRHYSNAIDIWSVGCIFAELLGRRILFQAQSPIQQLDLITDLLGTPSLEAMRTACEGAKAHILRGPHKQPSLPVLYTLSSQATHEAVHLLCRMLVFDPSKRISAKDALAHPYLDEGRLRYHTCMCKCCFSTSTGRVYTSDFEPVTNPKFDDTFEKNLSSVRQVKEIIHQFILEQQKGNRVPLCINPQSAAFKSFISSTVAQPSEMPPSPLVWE
The assay can be described thus: Selectivity interaction (KinomeScan (DiscoverX)) EUB0000607a NLK. As to conditions: at 10 µM.

The target in assay [5] is Ribosomal protein S6 kinase alpha-1 (Homo sapiens, UniProt Q15418). The assay can be described thus: Selectivity interaction (KinomeScan (DiscoverX)) EUB0000607a RPS6KA1. The conditions noted are these: at 10 µM.
For assay [6], the target named is Ribosomal protein S6 kinase alpha-2 (Homo sapiens) (UniProt Q15349). The conditions noted are these: at 10 µM.
Assay [7] has as its target Dual specificity protein kinase CLK3 (Homo sapiens, UniProt P49761).
Assay [8] has as its target Tyrosine-protein kinase CSK (Homo sapiens) (UniProt P41240). The assay can be described thus: Selectivity interaction (ActivX KiNativ screen (kinase selectivity in THP-1 cell lysates)) EUB0000639a CSK. The assay is classed as subcellular. As to conditions: lysate, at 1 µM.
Assay [9] addresses Mitogen-activated protein kinase kinase kinase 1 (Homo sapiens, UniProt Q13233). The assay can be described thus: Selectivity interaction (ActivX KiNativ screen (kinase selectivity in THP-1 cell lysates)) EUB0000639a MAP3K1. The format is subcellular. The conditions noted are these: lysate.
Assay [10] has as its target T3, MAP/microtubule affinity-regulating kinase 4 (Homo sapiens) (UniProt Q96L34).
T3 sequence (whole entry): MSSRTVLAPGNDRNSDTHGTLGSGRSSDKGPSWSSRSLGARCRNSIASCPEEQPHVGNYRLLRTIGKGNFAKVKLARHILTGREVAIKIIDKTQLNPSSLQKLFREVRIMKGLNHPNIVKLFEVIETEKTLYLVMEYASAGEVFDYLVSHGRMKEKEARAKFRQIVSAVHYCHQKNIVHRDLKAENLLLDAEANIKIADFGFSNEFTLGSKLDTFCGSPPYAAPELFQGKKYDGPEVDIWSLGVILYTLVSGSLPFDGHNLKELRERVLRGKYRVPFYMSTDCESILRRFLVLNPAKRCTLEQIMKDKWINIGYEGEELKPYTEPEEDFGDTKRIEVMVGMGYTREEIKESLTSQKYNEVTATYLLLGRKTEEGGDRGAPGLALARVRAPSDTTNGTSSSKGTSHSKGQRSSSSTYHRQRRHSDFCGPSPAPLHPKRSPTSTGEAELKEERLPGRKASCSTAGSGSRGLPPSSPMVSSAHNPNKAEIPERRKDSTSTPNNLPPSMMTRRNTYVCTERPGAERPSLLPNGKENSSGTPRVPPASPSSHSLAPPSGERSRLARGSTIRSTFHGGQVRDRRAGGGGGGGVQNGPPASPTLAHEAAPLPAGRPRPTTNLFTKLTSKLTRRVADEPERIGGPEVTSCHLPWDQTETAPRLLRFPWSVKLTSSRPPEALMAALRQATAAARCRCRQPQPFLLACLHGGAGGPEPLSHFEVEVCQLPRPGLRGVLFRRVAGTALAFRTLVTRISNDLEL
The assay can be described thus: Selectivity interaction (Kinase panel (Invitrogen)) EUB0000639a MARK4. The conditions noted are these: at 200 nM.

Assay [11] deals with Serine/threonine-protein kinase PLK1 (Homo sapiens, UniProt P53350). The assay can be described thus: Selectivity interaction (ActivX KiNativ screen (kinase selectivity in THP-1 cell lysates)) EUB0000639a PLK1. The conditions noted are these: lysate, at 0.01 µM. The format is subcellular.
The target of assay [12] is Calcium/calmodulin-dependent protein kinase type II subunit beta (Homo sapiens) (UniProt Q13554). The assay can be described thus: Selectivity interaction (KinomeScan (DiscoverX)) EUB0000045b CAMK2B.
Assay [13] addresses Bromodomain-containing protein 2 (Homo sapiens) (UniProt P25440). The assay can be described thus: Selectivity interaction (Bromodomain panel (DSF asssay)) EUB0000270b BRD2.

Sequence of Mitogen-activated protein kinase kinase kinase 1 (Q13233 whole entry): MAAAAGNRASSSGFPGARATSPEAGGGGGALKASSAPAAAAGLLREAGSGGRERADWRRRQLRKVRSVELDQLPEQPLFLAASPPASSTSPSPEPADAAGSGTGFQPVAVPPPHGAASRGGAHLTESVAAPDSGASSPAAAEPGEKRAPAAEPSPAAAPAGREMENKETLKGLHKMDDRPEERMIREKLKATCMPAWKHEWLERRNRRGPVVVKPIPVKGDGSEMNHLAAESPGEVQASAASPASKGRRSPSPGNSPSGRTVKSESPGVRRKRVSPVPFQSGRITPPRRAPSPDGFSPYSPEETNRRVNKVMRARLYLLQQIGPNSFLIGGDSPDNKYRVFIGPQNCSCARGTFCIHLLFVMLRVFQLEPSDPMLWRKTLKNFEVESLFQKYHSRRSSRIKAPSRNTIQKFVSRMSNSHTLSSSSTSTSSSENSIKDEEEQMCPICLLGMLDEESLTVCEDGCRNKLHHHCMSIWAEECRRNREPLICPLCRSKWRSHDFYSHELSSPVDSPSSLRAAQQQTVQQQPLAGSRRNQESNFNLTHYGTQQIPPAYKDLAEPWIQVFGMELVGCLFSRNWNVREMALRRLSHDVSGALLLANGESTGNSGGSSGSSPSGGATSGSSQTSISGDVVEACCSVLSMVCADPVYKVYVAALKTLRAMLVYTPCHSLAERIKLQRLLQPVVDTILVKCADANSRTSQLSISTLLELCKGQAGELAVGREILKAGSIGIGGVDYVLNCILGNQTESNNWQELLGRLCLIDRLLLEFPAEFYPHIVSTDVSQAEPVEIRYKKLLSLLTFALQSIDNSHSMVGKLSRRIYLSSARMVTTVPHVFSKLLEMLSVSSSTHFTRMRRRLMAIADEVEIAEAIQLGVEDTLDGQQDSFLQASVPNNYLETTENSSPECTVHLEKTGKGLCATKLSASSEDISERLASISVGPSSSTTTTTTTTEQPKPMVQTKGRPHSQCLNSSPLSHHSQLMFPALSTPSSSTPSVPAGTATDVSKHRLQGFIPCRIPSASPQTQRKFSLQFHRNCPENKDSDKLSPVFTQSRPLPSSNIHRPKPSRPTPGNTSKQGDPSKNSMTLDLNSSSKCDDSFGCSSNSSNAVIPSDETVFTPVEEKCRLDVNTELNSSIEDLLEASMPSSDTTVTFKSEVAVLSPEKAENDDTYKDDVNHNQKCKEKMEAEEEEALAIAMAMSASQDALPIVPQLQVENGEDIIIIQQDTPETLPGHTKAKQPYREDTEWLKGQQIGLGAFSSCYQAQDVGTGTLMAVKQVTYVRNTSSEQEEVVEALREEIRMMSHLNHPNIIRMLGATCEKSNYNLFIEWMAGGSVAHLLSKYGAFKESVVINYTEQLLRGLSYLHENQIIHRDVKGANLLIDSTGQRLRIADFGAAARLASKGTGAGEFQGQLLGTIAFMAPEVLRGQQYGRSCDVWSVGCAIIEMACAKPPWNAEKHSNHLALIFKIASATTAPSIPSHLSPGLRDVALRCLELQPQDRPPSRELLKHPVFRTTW
Sequence of Calcium/calmodulin-dependent protein kinase type II subunit beta (Homo sapiens) (Q13554 whole entry): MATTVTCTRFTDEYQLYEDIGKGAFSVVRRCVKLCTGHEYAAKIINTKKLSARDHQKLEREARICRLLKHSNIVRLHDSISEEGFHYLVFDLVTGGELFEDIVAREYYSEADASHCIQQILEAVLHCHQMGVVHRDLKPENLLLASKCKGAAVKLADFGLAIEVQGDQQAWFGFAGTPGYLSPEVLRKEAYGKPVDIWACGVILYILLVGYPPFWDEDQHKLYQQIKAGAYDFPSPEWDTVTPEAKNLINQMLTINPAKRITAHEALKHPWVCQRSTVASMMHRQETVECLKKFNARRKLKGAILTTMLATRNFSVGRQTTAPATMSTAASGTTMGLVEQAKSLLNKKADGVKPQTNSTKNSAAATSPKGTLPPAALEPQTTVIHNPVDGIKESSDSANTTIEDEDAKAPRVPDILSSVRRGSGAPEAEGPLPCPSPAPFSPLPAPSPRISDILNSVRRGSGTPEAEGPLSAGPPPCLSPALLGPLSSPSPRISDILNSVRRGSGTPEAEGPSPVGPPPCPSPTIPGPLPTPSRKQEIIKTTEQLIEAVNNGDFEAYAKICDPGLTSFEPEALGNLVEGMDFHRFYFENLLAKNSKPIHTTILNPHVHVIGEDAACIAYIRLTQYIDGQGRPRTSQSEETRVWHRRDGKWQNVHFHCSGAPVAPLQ
Sequence of Serine/threonine-protein kinase PLK1 (P53350 whole entry): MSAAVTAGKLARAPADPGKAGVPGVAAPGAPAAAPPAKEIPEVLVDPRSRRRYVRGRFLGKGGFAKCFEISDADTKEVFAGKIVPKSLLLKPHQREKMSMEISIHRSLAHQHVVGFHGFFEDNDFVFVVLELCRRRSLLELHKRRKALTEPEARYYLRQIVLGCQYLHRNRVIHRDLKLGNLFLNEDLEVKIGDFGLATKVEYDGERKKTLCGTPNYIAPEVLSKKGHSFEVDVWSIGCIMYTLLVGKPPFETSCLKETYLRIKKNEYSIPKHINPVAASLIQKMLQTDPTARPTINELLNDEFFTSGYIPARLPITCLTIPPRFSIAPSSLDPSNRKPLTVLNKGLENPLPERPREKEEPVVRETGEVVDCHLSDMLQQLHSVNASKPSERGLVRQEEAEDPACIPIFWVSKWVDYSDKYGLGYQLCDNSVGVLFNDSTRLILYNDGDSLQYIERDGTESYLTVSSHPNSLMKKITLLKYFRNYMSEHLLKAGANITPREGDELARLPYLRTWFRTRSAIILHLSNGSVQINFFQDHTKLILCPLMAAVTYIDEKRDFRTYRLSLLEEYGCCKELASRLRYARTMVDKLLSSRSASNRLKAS
Sequence of Phosphatidylinositol 4,5-bisphosphate 3-kinase catalytic subunit alpha isoform (Homo sapiens), P42336 [I800L] (P42336 whole entry I800L, canonical isoform): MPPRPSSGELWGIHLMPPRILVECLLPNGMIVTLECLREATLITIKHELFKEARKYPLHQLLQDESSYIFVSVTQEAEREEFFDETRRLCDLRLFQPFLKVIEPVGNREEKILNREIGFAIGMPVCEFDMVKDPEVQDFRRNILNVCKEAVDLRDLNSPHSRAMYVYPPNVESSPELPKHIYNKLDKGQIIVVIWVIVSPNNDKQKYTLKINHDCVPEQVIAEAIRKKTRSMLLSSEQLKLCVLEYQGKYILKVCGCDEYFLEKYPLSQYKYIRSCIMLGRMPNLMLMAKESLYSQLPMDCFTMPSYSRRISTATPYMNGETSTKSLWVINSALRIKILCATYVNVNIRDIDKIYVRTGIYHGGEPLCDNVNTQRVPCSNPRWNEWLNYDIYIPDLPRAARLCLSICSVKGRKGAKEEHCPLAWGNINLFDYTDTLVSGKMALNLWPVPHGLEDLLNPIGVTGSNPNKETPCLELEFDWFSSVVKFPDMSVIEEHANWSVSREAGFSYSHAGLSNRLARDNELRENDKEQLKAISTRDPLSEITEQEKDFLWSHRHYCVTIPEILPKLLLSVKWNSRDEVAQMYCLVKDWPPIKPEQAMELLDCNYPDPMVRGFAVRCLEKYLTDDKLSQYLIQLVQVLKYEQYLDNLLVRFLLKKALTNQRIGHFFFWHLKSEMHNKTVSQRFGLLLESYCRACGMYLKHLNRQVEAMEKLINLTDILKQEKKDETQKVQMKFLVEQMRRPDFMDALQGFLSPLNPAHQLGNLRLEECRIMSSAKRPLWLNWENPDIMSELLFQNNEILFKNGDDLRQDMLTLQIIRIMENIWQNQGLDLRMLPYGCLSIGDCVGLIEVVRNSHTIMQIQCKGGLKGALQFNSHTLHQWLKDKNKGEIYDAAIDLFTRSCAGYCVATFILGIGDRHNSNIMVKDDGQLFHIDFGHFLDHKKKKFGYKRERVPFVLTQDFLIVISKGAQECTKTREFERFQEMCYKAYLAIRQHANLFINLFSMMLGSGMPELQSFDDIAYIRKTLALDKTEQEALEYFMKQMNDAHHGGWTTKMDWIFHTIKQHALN
Sequence of Ribosomal protein S6 kinase alpha-2 (Homo sapiens) (Q15349 whole entry): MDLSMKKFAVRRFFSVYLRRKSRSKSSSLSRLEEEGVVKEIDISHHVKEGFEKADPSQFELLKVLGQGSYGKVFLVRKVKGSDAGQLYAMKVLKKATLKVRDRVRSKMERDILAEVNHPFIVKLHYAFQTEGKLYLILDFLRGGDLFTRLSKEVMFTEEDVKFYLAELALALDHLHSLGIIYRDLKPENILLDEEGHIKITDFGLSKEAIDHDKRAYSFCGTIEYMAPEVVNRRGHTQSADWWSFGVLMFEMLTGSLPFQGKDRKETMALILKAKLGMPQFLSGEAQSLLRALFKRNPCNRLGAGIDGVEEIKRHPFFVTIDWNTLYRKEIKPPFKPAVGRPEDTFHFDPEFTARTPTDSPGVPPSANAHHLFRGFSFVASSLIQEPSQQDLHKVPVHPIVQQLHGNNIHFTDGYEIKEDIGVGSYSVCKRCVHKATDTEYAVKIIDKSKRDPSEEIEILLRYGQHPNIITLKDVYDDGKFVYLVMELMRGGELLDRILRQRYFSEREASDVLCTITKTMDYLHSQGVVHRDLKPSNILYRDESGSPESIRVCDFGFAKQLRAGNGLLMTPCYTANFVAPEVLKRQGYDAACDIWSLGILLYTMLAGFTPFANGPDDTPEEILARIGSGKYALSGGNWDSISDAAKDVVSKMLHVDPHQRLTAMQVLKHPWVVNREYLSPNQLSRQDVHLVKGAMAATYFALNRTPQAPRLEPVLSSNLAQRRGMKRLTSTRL
Sequence of Dual specificity protein kinase CLK3 (P49761 whole entry, looked up): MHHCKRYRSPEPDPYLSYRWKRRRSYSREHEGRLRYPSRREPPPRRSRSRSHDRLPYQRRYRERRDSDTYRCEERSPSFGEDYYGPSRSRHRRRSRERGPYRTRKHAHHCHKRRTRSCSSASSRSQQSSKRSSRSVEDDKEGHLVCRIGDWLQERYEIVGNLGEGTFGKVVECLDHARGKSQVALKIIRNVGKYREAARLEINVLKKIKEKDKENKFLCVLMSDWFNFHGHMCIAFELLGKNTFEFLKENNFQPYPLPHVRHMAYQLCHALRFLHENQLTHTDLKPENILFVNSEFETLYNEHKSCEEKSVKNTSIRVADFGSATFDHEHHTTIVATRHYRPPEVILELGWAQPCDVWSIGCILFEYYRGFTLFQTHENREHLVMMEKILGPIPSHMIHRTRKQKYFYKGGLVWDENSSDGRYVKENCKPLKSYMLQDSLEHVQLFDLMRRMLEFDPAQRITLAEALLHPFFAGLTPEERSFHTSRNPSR

As for `Cn1cc(-n2cnc3c(NCc4nc5cc(Cl)c(Cl)cc5[nH]4)nc(N4CCOCC4)nc32)cn1`, the % of control in assay [1] was -0.03%. In addition, the % of inhibition in [2] is -5.62%.

As for `COCC(=O)NC/C=C/c1ccc2ncnc(Nc3ccc(Oc4ccc(C)nc4)c(C)c3)c2c1` [CP-724714], the % of control in [3] came out at 100%.

Regarding `CNC(=O)Nc1ccc(-c2nc(N3CC4CCC(C3)O4)c3cnn(C4CCC5(CC4)OCCO5)c3n2)cc1`, the % of control in assay [4] was found to be 85%; in assay [5] it was 100%.

For the compound `Cc1cc([C@@H](C)Nc2ccccc2C(=O)O)c2nc(N3CCOCC3)cc(=O)n2c1` [AZD-6482], in assay [6], the % of control turned out to be 98%.

With `Cc1cnc(Nc2ccc(F)cc2Cl)nc1-c1c[nH]c(C(=O)N[C@H](CO)c2cccc(Cl)c2)c1`, the % of inhibition in assay [7] came out at 9%.

For `CC[C@@H]1[C@H](F)C(=O)N[C@@H]1COc1nccc2cc(C(N)=O)c(OC)cc12` [ZIMLOVISERTIB], the % of inhibition is 0.5% in assay [8]; 9.7% in assay [9] (at 0.01 µM); -2.5% in assay [9] (at 0.04 µM); -19.5% in assay [9] (at 0.2 µM); -13.4% in [9] (at 1 µM); 3.7% in assay [9] (at 5 µM). The figures for the % of inhibition in assay [10] and in assay [11] were 14% and -0.3%, respectively.

As to `C=CC(=O)Nc1cc(-n2c(=O)ccc3cnc4ccc(-c5ccc(NS(C)(=O)=O)cc5)cc4c32)ccc1C`, the % of control came out at 100% in assay [12] (at 1 µM) and 74% in [12] (at 10 µM).

`Cc1cc(CN)cc(C)c1-c1ncn(C)c1-c1cncn1C`: the dTM in assay [13] was -1.94 K.
